Laboratory results taken from patent publication US8642593B2, “2,4-pyrimidinediamine compounds and prodrugs and their uses” (Rigel Pharmaceuticals, Inc., priority 2009, dated 2014).

Experiments:
KDR/VEGFR2 enzyme = molecular target: T1, KDR/VEGFR2 enzyme (Homo sapiens, UniProt P35968); experiment: Biochemical VEGFR Assay (ELISA); conditions: Table 2, unit inferred; read-out: Biochem VEGFR2
T1 construct: purchased Millipore #14-630
Description: Compounds are tested for the ability to inhibit VEGF2 in an ELISA assay. […] Plates are then washed with 1×PBST using a plate washer, then blocked with 2% BSA in 1×PBST (100 μL/well) for 1 hr at room temperature. The NeutrAvidin-coated plates are again washed with 1×PBST using a plate washer.
The mixed test compound/reaction solutions are added to the wells of the NeutrAvidin-coated plates (50 μL/well). 6× enzyme solution (1000 parts kinase buffer, 0.6 parts KDR/VEGFR2 enzyme (50 μg/mL, Millipore, #14-630) is added to all wells except those designated as negative controls. The plates are incubated for 30 minutes on a shaker at room temperature.
The detection reagent is added at 100 μL/well, and the plates are incubated for 60 minutes at room temperature, then washed with 1×PBST using a plate washer.

[1] = test system: allergen induced basophil degranulation; experiment: CD63 Assay (BASOTEST, FACS, whole blood, anti-IgE); type: cell-based; conditions: for potency compared with the control in the presence of whole blood (CD63 assay): vs control compound; for IC50: whole blood, anti-IgE, Table 2, unit inferred
Description: Compounds are tested for the ability to inhibit allergen induced basophil degranulation. The BASOTEST® kit (Orpegen Pharma GmbH, #10-0500) is used in this assay. In a 5 mL FACS tube 105 μL of Heparinized whole blood, 25 μL of test compound solution (in DMSO) are incubated at room temperature for 30-60 minutes. To induce degranulation, 20 μL stimulation buffer (Reagent B) is added, and the tube is incubated for 10 min in a 37° C. water bath. Then, 100 μL of anti-IgE (2 μg/mL) is added, or 100 µL of washing solution (reagent A) is added (i.e., as a negative control). The tube is incubated for 20 min in a 37° C. water bath. Degranulation is then stopped by incubation on ice for 5 min. 20 μL of staining reagent (reagent F) is added, and the tube is incubated on ice in the dark for 20 min. 2 mL of room temperature lysing solution is added, and the tube is incubated at room temperature for 10 min. The tubes are spun down at 4° C. for 5 min at 1600 rpm, and the supernatant is discarded. 3 mL washing solution (reagent A) is added, and the tubes spun down at 4° C. for 5 min at 1600 rpm, and the supernatant is discarded. 200 μL washing solution is added to the remaining cell pellet, and the samples are incubated on ice in the dark until analysis (within 2 h). Analysis is performed using flow cytometry at 488 nm using the conditions specified in the BASOTEST® kit instructions to determine percentage of activated basophilic granulocytes.

[2] = molecular target: T2, Ret kinase in SK-N-SH brain neuroblastoma cells (Homo sapiens, UniProt P07949); experiment: Cellular Ret Assay; type: cell-based; conditions: GDNF, Table 2, unit inferred
T2 construct: Ret is immunoprecipitated from the detergent-soluble cell lysate; host or cells: SK-N-SH brain neuroblastoma cells
Description: Compounds are tested for the ability to inhibit Ret kinase in cells. SK-N-SH brain neuroblastoma cells (ATCC, #HTB-1, maintained and plated in DMEM (Cellgro Mediatech, #10-013-CV) with 10% fetal bovine serum (JRH, #12106-500M) are seeded in 10 cm plates in 10 mL of culture media and allowed to reach 85% confluence by the next day. The medium is replaced with 5 mL of DMEM (without fetal bovine serum) containing DMSO or test compound (final 0.1% DMSO), and incubated at 37° C./5% CO2 for 1 hour. SK-N-SH cells are then stimulated with 50 ng/mL of human recombinant GDNF (Peprotech, #450-10) for 10 minutes. Cells are washed once with cold 1×PBS and lysed with 500 μL of 1% NP-40 lysis buffer (Tris HCl pH 7.4 with 150 mM NaCl, 1 mM NaVn, 1% Nonidet-P40 (Fisher Scientific, #PI-28324), protease inhibitor tablet (Roche, 1697498)). […]
After washing with 1×TBST for 2 hours with five buffer changes, the membrane is probed with Goat anti-Mouse IgG HRP antibody (Jackson Immunoresearch Labs, #115-035-146, 1:2000) in 1×TBST+5% milk for 1 hour at room temperature. The membrane is washed with TBST for 2 hours with five buffer changes, treated with ECL plus Western Blot detection reagent (GE Healthcare, formerly Amersham, #RPN2132) according to the instruction manual, and the chemiluminescent signal is detected on Kodak Biomax MR Film (VWR, # IB8701302).

Syk kinase = molecular target: T3, Syk kinase (Homo sapiens, UniProt P43405); experiment: Fluorescence Polarization Syk kinase assay; type: biochemical; conditions: for IC50: Table 2, unit inferred, read-out: FP-based Biochem Syk; for potency compared with the control, biochemical assay: vs control compound
T3 construct: purchased Millipore #14-314
Description: Compounds are tested for the ability to inhibit Syk kinase catalyzed phosphorylation of a peptide substrate in a biochemical fluorescence polarization assay with isolated Syk kinase.
Test compound stock solutions (10 mM) containing are serially diluted in DMSO starting from 2.5 mM and then further diluted to desired concentration of 50 μM (5×) to yield 2% DMSO concentration in kinase buffer (20 mM HEPES, pH 7.4, 5 mM MgCl2, 2 mM MnCl2, 1 mM DTT, 0.1 mg/mL acetylated Bovine Gamma Globulin). The assay is carried out in a black 96 well low volume plate (Molecular Devices, #42-000-0117) by transferring compound in 2% DMSO (0.4% DMSO final) pre-mixed with ATP/substrate (TK2 peptide) in kinase buffer at room temperature. Syk kinase (Millipore, #14-314) is added to a final reaction volume of 20 μL, and the reaction is incubated for 30 minutes at room temperature. […] The reaction is stopped by addition of 20 μL of PTK quench mix containing EDTA (10 mM final)/anti-phosphotyrosine antibody (1× final)/fluorescent phosphopeptide tracer (0.5× final) diluted in FP dilution buffer to stop the reaction to a total volume of 40 μL according to the manufacturer's instructions (Invitrogen). The plate is incubated in the dark for additional 30 minutes at room temperature and then read on a Polarion fluorescence polarization plate reader (Tecan). Data are converted to amount of phosphopeptide present using a calibration curve generated by competition with the phosphopeptide competitor provided in the Tyrosine Kinase Assay Kit, Green (Invitrogen, #P2837).

T2 sequence (P07949 29-1114): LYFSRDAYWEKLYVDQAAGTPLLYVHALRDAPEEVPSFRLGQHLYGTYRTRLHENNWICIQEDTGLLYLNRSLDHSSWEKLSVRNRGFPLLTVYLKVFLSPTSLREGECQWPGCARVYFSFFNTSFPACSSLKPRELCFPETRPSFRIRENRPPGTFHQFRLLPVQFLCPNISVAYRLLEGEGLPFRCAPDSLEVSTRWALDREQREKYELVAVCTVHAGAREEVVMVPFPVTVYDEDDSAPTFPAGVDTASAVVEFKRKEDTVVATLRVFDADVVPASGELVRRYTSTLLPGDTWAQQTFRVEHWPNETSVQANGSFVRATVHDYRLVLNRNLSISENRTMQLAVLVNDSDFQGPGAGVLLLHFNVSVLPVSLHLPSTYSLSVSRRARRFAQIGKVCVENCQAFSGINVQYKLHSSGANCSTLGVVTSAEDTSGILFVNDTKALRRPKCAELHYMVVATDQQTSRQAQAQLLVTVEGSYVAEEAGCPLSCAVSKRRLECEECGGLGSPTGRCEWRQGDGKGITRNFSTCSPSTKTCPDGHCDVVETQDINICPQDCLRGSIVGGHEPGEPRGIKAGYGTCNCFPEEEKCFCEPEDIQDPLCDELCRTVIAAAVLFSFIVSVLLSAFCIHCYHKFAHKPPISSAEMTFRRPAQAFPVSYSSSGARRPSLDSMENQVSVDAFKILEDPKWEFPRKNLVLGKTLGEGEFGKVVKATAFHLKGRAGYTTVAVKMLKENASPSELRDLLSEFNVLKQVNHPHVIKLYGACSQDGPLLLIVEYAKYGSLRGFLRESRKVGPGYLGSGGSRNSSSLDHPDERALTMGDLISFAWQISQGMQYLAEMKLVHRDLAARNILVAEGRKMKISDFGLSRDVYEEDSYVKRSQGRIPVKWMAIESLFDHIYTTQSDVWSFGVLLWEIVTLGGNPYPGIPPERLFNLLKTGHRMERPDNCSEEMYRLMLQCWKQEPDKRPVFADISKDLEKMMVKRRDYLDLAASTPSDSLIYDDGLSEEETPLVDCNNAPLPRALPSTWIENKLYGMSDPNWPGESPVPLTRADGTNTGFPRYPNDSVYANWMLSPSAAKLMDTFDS
T1 sequence (P35968 790-1356 limits assumed): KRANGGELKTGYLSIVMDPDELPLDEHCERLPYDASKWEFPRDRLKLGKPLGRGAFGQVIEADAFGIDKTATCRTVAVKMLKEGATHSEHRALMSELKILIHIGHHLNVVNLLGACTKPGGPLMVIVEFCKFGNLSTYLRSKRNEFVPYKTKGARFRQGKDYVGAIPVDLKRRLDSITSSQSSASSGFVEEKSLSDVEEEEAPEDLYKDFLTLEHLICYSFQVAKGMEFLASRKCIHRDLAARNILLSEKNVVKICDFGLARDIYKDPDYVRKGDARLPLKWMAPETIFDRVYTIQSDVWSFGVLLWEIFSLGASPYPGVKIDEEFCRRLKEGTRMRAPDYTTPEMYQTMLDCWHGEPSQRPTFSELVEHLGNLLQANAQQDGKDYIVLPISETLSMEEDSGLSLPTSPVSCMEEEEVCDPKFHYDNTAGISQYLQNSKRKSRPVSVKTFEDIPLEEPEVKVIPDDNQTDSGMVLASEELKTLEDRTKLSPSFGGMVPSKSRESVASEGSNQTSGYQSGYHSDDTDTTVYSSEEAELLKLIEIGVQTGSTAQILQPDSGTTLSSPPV

SMILES | IC50 (KDR/VEGFR2 enzyme) | potency compared with the control in the presence of whole blood (CD63 assay) [1] | IC50 [1] | IC50 [2] | IC50 (Syk kinase) | potency compared with the control, biochemical assay (Syk kinase)
CC1(C)Oc2ccc(Nc3nc(Nc4ccc(N5CCOCC5)cc4)ncc3F)nc2NC1=O [Compound 3, N4-(2,2-Dimethyl-3-oxo-4H-5-pyrido[1,4]oxazin-6-yl)-5-fluoro-N2-(4-morpholinophenyl)-2,4-pyrimidinediamine] | 340 nM | more potent | 300 nM | > 1000 nM | 80 nM | somewhat less potent than the control
CC1(C)Oc2ccc(Nc3nc(Nc4ccc(N5CCOCC5)nc4)ncc3F)nc2NC1=O [Compound 1, N4-(2,2-Dimethyl-3-oxo-4H-5-pyrido[1,4]oxazin-6-yl)-5-fluoro-N2-[6-morpholinopyridin-3-yl]-2,4-pyrimidinediamine] | 770 nM | more potent | 250 nM | > 5000 nM | 40 nM | somewhat less potent than the control
